“Also recorded” adds a separate entry of the source.
Legend:
[1] = target: T1, RORgamma ligand binding domain (Homo sapiens, UniProt P51449); assay: TR-FRET assay variation: agonist titration on top of saturating antagonist (4 μM LE540); type: biochemical; parameters: made in house; host or cells: E. coli BL21(DE3)
T1 sequence (P51449 267-518): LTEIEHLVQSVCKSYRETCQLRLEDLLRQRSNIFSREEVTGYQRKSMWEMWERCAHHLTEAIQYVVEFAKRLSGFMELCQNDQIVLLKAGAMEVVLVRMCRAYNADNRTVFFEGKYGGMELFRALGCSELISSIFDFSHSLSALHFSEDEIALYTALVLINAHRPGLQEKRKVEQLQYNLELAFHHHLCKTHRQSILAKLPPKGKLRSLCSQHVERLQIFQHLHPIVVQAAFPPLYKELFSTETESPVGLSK
Excerpt: (§1) The ligand binding domain (LBD) of RORγ was expressed as fusion protein with GST in […] cells using the vector pDEST15. Cells were lysed by lysozyme-treatment and sonication, and the fusion proteins purified over glutathione sepharose (Pharmacia) according to the manufacturers instructions. For screening of compounds for their influence on the RORγ-peptide interaction, the LANCE technology (Perkin Elmer) was applied. This method relies on the binding dependent energy transfer from a donor to an acceptor fluorophor attached to the binding partner of interest. For ease of handling and reduction of background from compound fluorescence LANCE technology makes use of generic fluorophore labels and time resolved detection assays were done in a final volume of 25 μl in a 384 well plate, in a Tris-based buffer (20 mM Tris-HCl pH 7.9; 60 mM KCl, 5 mM MgCl2; 35 ng/μl BSA), containing 20-60 ng/well recombinantly expressed RORγ-LBD fused to GST, 200-600 nM N-terminally biotinylated peptide, 200 ng/well Streptavidin-xIAPC conjugate (Prozyme) and 6-10 ng/well Eu W1024-antiGST (Perkin Elmer). DMSO content of the samples was kept at 1%. After generation of the assay mix the potentially RORγ modulating ligands were diluted. After his step, the assay was equilibrated for one hour in the dark at room temperature in FIA-plates black 384 well (Greiner). The LANCE signal was detected by a Perkin Elmer VICTOR2V™ Multilabel Counter. […] Ligands that promote the complex formation induce a concentration-dependent increase in time-resolved fluorescent signal.
In a variation of the assay described above, an antagonistic compound was added in a saturating concentration (4 μM) to the assay mix. Then the agonistic compounds were diluted and the assay was equilibrated for one hour in the dark.

[2] = target: T1, RORgamma ligand binding domain; assay: TR-FRET ligand sensing assay: RORγ-LBD / coactivator peptide interaction; type: biochemical; parameters: made in house; host or cells: E. coli BL21(DE3); conditions: for IC50: antagonistic
Procedure: As described in more detail in the examples, a GST-RORgamma-LBD fusion protein is expressed and purified from E. coli. The TR-FRET assays were performed in a final volume of 25 μl in individual wells of a 384 well plate using a Tris-based buffer system: 10-50 mM Tris-HCl pH 7.9; 50-100 mM KCl, 1-10 mM MgCl2; 20-100 ng/μl BSA), containing 20-60 ng/well recombinantly expressed RORγ-LBD fused to GST, 200-600 nM N-terminally biotinylated peptide (e.g. derived from SRC-1 or TIF-2), 50-500 ng/well Streptavidin-xIAPC conjugate (Prozyme) and 2-20 ng/well Eu W1024-antiGST (Perkin Elmer).
The human RORg ligand binding domain (LBD) was expressed in E. coli strain BL21(DE3) as an N-terminal glutathione-S-transferase (GST) tagged fusion protein. The DNA encoding the RORg ligand binding domain was cloned into vector pDEST15 (Invitrogen). […] Expression in pDEST15 is controlled by a IPTG inducible T7 promoter and cloning and transformation of E. coli was done essentially according to standard protocols known to persons skilled in the art and supplied by Invitrogen.
Determination of the interaction of a ligand with the human RORgamma ligand binding domain was done by using a Ligand Sensing Assay based on Time-resolved Fluorescence Energy Transfer (TR-FRET).
This method measures the ability of putative ligands to modulate the interaction between the purified bacterial expressed RORg ligand binding domain (LBD) and synthetic N-terminally biotinylated peptides which are derived from nuclear receptor coactivator proteins such as but not limited to SRC1 (NcoA1), SRC2 (NcoA2,TIF2), SRC3 (NcoA3), PGC1α, PGC1β, CBP, GRIP1, TRAP220, RIP140.
as §1
Equation: Sigmoidal dose-response (variable slope) Y=Bottom+(Top-Bottom)/(1+10̂((LogEC50-X)*HillSlope))
This is identical to the “four parameter logistic equation”. The EC50 or IC50 values are calculated using this equation.

[3] = target: T1, RORgamma ligand binding domain; assay: Radioligand displacement assay (3H-25-hydroxycholesterol); parameters: made in house; host or cells: E. coli BL21 (DE3); conditions: FIG. 1; for apparent potency and efficacy of displacement: comparison among ligands; for displacement of 3H-25-hydroxycholesterol bound to RORgamma-LBD: dose dependent, radioligand at saturating concentration (500 nM)
Excerpt: This method measures the ability of putative ligands to displace a radioactively labeled compound that is bound to the RORgamma ligand binding domain.
The ligand binding domain (LBD) of RORγ was expressed as fusion protein with GST in BL-21 cells using the vector pDEST15. Cells were lysed by lysozyme-treatment and sonication, and the fusion proteins purified over glutathione sepharose (Pharmacia) according to the manufacturers instructions. For screening of compounds for their ability to bind to RORγ, commercially available 25-26,27-[…]-hydroxycholesterol
(Perkin Elmer, NET674250UC) was bound to the protein and displacement by non radioactive ligands was observed. The assay was done in a final volume of 100 μl in a 96-well glutathione and scintillant coated microplate (Perkin Elmer, SMP109001PK). […] Compounds to be tested were titrated and added to the protein-radioligand mix. DMSO content of the samples was kept at 1%. After addition of the compounds, the assay was equilibrated for 30 min at room temperature. After this incubation the assay plate wells were washed twice with Tris buffer (20 mM Tris-HCl pH 7.5; 60 mM KCl, 5 mM MgCl2) and subsequently measured for 500 sec per well in a LUMIstar OPTIMA (BMG).

[4] = system: IL-17 production by peripheral blood human mononuclear cells (PBMCs); assay: PBMC stimulation and IL-17 secretion assay (ELISA); type: cell-based; conditions: 72 h; for mean concentration of IL-17: anti-CD3/anti-CD28 stimulated PBMCs
Procedure: Cryopreserved peripheral blood human mononuclear cells (PBMCs) were used for the experiments. The cells were thawed in CTL-Anti-Aggregate-Wash™ solution and washed once in CTL Wash™ medium with benzonase. PBMCs, suspended in CTL serum-free test media (CTL-Test™ Medium), were plated into 96-well BD BioCoat Anti-Human CD3 T-Cell activation plate at a total of 1×10^5 cells/well in triplicate. The cells were incubated with anti-CD28 (2 μg/ml) in the absence or presence of LE540, LE135 and Am580 at different concentrations for 72 h at 37° C. with 5% CO2. The compounds were added at the time 0. The supernatants were harvested and assayed for IL-17 according to the protocol from the corresponding ELISA kit (Invitrogen). The detection range was 15.6-1,000.0 pg/ml. Data are presented as means±s.d. values.
In the control experiments PBMCs were stimulated with anti-CD3 (plate) and anti-CD28 in the presence of 0.1% DMSO. The mean concentration of IL-17 was 1,003.36±45.18 pg/ml. In contrast, the concentration of IL-17 in non stimulated cells was under the detection range (<15.6 pg/ml). […] The compounds were added to the cells at time 0 together with the anti-CD28 mAb. […] The lower concentration of LE540 (0.1 μM) was also very potent in PBMCs. […] The amount of IL-17 protein was down regulated after treatment of cells with 3, 1, and 0.3 μM of LE135 (FIG. 3).

[5] = agonistic, assay includes 4 μM LE540, peptide TIF2(628-658), read-out: apparent EC50
[6] = agonistic, peptide TIF2(628-658), read-out: EC50
[7] = Homo sapiens, PBMC, 0.3 μM compound, stimulated PBMCs, read-out: percentage of IL-17 inhibition

IC50 ([2]; peptide SRC1(676-700)) [µM] | IC50 ([2]; peptide TIF2(628-658)) [µM] | apparent potency and efficacy of displacement [3] | displacement of 3H-25-hydroxycholesterol bound to RORgamma-LBD [3] | Compound | EC50 [1, 5] [µM] | EC50 [2, 6] [µM] | production of IL-17 by human PBMCs (qualitative) ([4]; stimulated PBMCs) | other results
– | – | – | – | CC(C)CC[C@@H](O)[C@@H](C)[C@H]1CC[C@H]2[C@@H]3CC=C4C[C@@H](O)CC[C@]4(C)[C@H]3CC[C@]12C [22R-Hydroxycholesterol] | – | – | – | EC50 [1]: 0.154 µM; EC50 [2]: 0.0165 µM
– | – | – | – | C[C@@H](CO)CCC[C@@H](C)[C@H]1CC[C@H]2[C@@H]3CC=C4C[C@@H](O)CC[C@]4(C)[C@H]3CC[C@]12C [(25R)-26-Hydroxycholesterol] | 0.146 | 0.0141 | – | –
12.2 | 11.3 | lowest potency and efficacy | able to displace | CC(C)(C)c1cc(C(=O)C=Cc2ccc(C(=O)O)cc2)cc(C(C)(C)C)c1 [Ch55] | – | – | – | displacement of 3H-25-hydroxycholesterol bound to RORgamma-LBD ([3]; listed as CH55): dose-dependent competitive displacement
– | – | – | – | COC(=O)CC[C@@H](C)[C@H]1CC[C@H]2[C@@H]3CC=C4C[C@@H](O)CC[C@]4(C)[C@H]3CC[C@]12C [Cholenic Acid Methyl Ester] | 0.311 | 0.0275 | – | EC50 ([2]; agonistic, peptide TIF2(628-658), listed as cholenic acid methyl ester, read-out: EC50): 0.0277 µM
– | – | – | – | C[C@H](CCC(=O)N(C)C)[C@H]1CC[C@H]2[C@@H]3CC=C4C[C@@H](O)CC[C@]4(C)[C@H]3CC[C@]12C [DMHCA] | 0.085 | 0.0107 | – | –
19.3 | 13.2 | – | – | CN1c2cc3c(cc2N=C(c2ccc(C(=O)O)cc2)c2ccccc21)C(C)(C)CCC3(C)C [LE135] | – | – | inhibit the production of IL-17 | inhibition at 0.3 µM [4, 7]: 35.8%; inhibition at 1 µM ([4]; Homo sapiens, PBMC, 1 μM compound, stimulated PBMCs, read-out: percentage of IL-17 inhibition): 61.9%; inhibition at 3 µM ([4]; Homo sapiens, PBMC, 3 μM compound, stimulated PBMCs, read-out: percentage of IL-17 inhibition): 75.9%
8.6 | 8.2 | less potent but seems rather efficient | dose-dependent competitive displacement | C/C(=C\c1ccc(C(=O)O)cc1)c1ccc2c(c1)C(C)(C)CCC2(C)C [TTNPB] | – | – | – | displacement of 3H-25-hydroxycholesterol bound to RORgamma-LBD ([3]; listed as TTNBP): able to displace
23.4 | 19.8 | – | – | Am580 | – | – | inhibit the production of IL-17 | level of IL-17 ([4]; 1 μM compound, stimulated PBMCs): within the control range; level of IL-17 ([4]; 5 μM compound, stimulated PBMCs): within the control range; percentage of IL-17 inhibition ([4]; 10 μM compound, stimulated PBMCs): 69.73%

Compound | IC50 ([2]; peptide SRC1(676-700)) [µM] | IC50 ([2]; peptide TIF2(628-658)) [µM] | apparent potency and efficacy of displacement [3] | displacement of 3H-25-hydroxycholesterol bound to RORgamma-LBD [3] | EC50 [1, 5] [µM] | EC50 [2, 6] [µM] | production of IL-17 by human PBMCs (qualitative) ([4]; stimulated PBMCs) | other results
CN1c2cc3c(cc2N=C(c2ccc(C(=O)O)cc2)c2ccc4ccccc4c21)C(C)(C)CCC3(C)C [LE540] | 3.6 | 4.9 | highest | able to displace; also recorded: dose-dependent competitive displacement | – | – | inhibit the production of IL-17 | mean concentration of IL-17 ([4]; 0.1 μM compound): 659.39 pg/mL; mean concentration of IL-17 ([4]; 0.3 μM compound): 289.69 pg/mL; inhibition at 0.1 µM ([4]; Homo sapiens, PBMC, 0.1 μM compound, stimulated PBMCs, read-out: percentage of IL-17 inhibition): 34.3%; inhibition at 0.3 µM [4, 7]: 71.1%
